target: T1, recombinant human MAO-A (Homo sapiens, UniProt P21397); test: In vitro MAO inhibition assay (kynuramine oxidative deamination), IC50; assay type: biochemical; conditions: rhMAO-A, kynuramine 80 μM, steady-state, mean ± SD
T1 construct: purchased BD Biosciences (Bedford, MA, USA)
T1 sequence (P21397 1-527): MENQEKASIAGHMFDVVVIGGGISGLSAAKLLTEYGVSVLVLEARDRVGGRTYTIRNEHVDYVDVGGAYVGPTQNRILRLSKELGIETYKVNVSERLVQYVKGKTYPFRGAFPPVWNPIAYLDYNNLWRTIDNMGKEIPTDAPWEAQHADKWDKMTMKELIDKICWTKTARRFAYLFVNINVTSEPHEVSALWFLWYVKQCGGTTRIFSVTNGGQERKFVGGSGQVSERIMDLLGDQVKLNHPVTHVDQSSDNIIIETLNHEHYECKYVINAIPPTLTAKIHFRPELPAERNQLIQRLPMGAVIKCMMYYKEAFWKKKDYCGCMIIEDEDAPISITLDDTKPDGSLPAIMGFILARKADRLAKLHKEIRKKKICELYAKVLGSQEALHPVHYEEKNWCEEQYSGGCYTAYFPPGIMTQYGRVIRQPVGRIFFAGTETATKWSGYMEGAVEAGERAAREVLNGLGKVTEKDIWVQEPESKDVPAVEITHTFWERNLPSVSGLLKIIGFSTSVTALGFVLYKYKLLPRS
Description: (§1) A fixed concentration of kynuramine substrate and varying concentrations of the test compounds were used to determine the IC50 values. Kynuramine concentrations for MAO-A and -B assays were 80 μM and 50 μM, respectively. The concentrations of PQ and NPC1161 enantiomers varied from 0.1 μM to 200 μM, for the rhMAO-A and -B enzyme activity inhibition. The test compounds were dissolved in DMSO, diluted in the buffer solution just before the assay, and pre-incubated with the enzyme (MAO-A (5 μg/mL) or -B (12.5 μg/mL)) for 10 min at 37 °C. […] The enzymatic reactions were initiated by the addition of the substrate (kynuramine 80 and 50 μM, for MAO-A and -B, respectively) and incubated for 20 min at 37 °C. The enzyme reactions were terminated by the addition of 78 μL of 2N NaOH to each well. The formation of 4-hydroxyquinoline (the enzyme reaction end product) was recorded fluorometrically on a SpectraMax M5 fluorescence plate reader (Molecular Devices, Sunnyvale, CA, USA) with 320 nm excitation and 380 nm emission wavelengths, using the Soft MaxPro-6 program. The inhibition of enzyme activity was calculated in terms of product formation as a percentage of corresponding controls (enzyme–substrate reaction without inhibitors). Assay controls, to define the interference of the test compounds with the fluorescence measurements, were set up simultaneously, and the enzyme or substrate was added after stopping the reaction.
(§2) The enzyme assays were performed at a steady-state fixed concentration of the substrate kynuramine (80 μM for MAO-A and 50 μM for MAO-B) and different concentrations of the test compounds (PQ and NPC1161 enantiomers). The dose–response enzyme-inhibition curves were generated using Microsoft® Excel (Figure 2), and the IC50 values were computed with XLfit®.

Molecule `COc1cc(C)c2c(Oc3cccc(C(F)(F)F)c3)c(OC)cc(NC(C)CCCN)c2n1` (stereo not drawn) [Tafenoquine, 4-N-[2,6-dimethoxy-4-methyl-5-[3-(trifluoromethyl)phenoxy]quinolin-8-yl]pentane-1,4-diamine] has an IC50 of 2.7 ± 0.14 µM.

target: T2, recombinant human MAO-B (Homo sapiens, UniProt P27338); test: as above; assay type: biochemical; conditions: rhMAO-B, kynuramine 50 μM, steady-state, mean ± SD
T2 construct: purchased BD Biosciences (Bedford, MA, USA)
T2 sequence (P27338 1-520): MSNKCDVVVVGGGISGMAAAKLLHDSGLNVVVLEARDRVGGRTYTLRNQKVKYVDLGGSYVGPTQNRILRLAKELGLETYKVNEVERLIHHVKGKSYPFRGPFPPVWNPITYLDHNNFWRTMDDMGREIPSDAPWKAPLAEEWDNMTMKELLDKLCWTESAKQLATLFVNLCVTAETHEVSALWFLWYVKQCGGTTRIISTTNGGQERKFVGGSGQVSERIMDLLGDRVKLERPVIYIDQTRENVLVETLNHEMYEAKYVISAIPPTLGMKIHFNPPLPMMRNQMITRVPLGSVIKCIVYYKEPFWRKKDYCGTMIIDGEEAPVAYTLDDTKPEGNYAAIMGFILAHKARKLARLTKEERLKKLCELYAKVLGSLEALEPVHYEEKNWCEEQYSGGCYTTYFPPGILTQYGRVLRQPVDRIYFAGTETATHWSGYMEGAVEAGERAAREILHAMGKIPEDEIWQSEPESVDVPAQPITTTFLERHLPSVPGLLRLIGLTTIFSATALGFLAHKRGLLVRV
Description: as §1, §2

In order of falling IC50:
1. COc1cc(N[C@@H](C)CCCN)c2ncccc2c1 [(S)-(+)-Primaquine]  170 ± 15.3 µM
2. COc1cc(N[C@H](C)CCCN)c2ncccc2c1 [(R)-(−)-Primaquine]  117 ± 8.82 µM
3. COc1cc(NC(C)CCCN)c2ncccc2c1 (racemic) [(RS)-(±)-Primaquine, Primaquine]  107 ± 1.18 µM
4. COc1ccc2c(c1)[nH]c1c(C)nccc12 [Harmine]  53.1 ± 3.91 µM
5. COc1cc(C)c2c(Oc3cccc(C(F)(F)F)c3)c(OC)cc(NC(C)CCCN)c2n1 (stereo not drawn) [Tafenoquine, 4-N-[2,6-dimethoxy-4-methyl-5-[3-(trifluoromethyl)phenoxy]quinolin-8-yl]pentane-1,4-diamine]  0.95 ± 0.07 µM

Source: publication PMC8146505, “Enantioselective Interactions of Anti-Infective 8-Aminoquinoline Therapeutics with Human Monoamine Oxidases A and B” (Pharmaceuticals, 2021)
